Values of other authors, collected in paper PMC11011029, “Design and Preclinical Evaluation of a Novel Prostate-Specific Membrane Antigen Radioligand Modified with a Transthyretin Binder” (Cancers, 2024).

What was measured:
[1] = test system: PC-3 PIP/flu tumor-bearing mice; details: 24 h p.i.
[2] = undiluted blood plasma
PSMA = target: T1, PSMA (Homo sapiens, UniProt Q04609); set-up: method as in PMID 32042329; details: read-out: PSMA-binding affinity KD
T1 construct: expressed in transfected cells; host or cells: PC-3 PIP cells (from Prof. Martin Pomper, Johns Hopkins)

[3] = set-up: method as in PMID 29684274; details: after 24 h incubation, same experimental conditions

T1 sequence (Q04609 whole entry): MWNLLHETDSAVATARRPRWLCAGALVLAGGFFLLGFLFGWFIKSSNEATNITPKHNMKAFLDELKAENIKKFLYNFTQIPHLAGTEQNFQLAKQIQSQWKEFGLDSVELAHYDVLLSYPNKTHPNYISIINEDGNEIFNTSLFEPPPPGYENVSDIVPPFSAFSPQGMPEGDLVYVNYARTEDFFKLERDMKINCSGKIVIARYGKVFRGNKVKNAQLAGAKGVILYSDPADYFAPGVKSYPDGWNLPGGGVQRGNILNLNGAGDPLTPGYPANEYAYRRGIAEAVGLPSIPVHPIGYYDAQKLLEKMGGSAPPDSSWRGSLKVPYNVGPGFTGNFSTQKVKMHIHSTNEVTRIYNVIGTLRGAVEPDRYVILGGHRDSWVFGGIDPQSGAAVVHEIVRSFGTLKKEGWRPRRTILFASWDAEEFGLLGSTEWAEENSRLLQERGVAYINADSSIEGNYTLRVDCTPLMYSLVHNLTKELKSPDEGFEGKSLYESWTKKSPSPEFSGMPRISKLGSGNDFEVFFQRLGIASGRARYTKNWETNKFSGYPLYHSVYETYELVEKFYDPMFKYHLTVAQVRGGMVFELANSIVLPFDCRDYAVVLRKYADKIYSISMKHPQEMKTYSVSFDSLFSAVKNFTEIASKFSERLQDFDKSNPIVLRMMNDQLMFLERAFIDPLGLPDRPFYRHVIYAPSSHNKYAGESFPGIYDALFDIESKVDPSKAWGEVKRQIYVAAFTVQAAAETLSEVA

[^177Lu]Lu-PSMA-617
uptake in PC-3 PIP xenografts [1]: 37 ± 6 % IA/g | fraction bound to serum proteins [2]: 59 ± 1% | Kd (PSMA): 0.013 ± 0.001 µM | logD: −4.4 | intact radioligand [3]: < 2%
